Values of other authors as cited in patent publication US11648211B2, “Nanoencapsulated combination drug formulations” (priority 2019, dated 2023).
Counter-ions that a name gives are not always drawn. Like-named read-outs stand apart in the source and are kept apart here.

What was measured:
[1] = tested on: SARS-2-S-driven entry into Caco-2 cells
[2] = tested on: SARS-2-S-driven entry into Vero-TMPRSS2 cells
[3] = in vivo, ip, 5 mg/kg
[4] = human, in vivo
[5] = in vivo
advanced breast cancer = settings: in vivo

CN(C)C(=O)COC(=O)Cc1ccc(OC(=O)c2ccc(NC(=N)N)cc2)cc1 [Camostat mesylate]
SARS-2-S-driven entry [1]: partially blocked | SARS-2-S-driven entry [2]: partially blocked

Cn1ncnc1[C@H]1c2n[nH]c(=O)c3cc(F)cc(c23)N[C@@H]1c1ccc(F)cc1 [TLZ, Talazoparib]
patients with anemia, low RBC count (oral): 52% | patients with leukopenia, low WBC count (oral): 17% | patients with thrombocytopenia, low PLT count (oral): 27% | patients with neutropenia (patients treated with TLZ): 35%

CCc1cnn2c(NCc3ccc[n+]([O-])c3)cc(N3CCCC[C@H]3CCO)nc12 [DCB, Dinaciclib]
half-life [3]: 0.25 h | half-life [4]: 3.3 h | patients with neutropenia [4]: 43% | patients with thrombocytopenia [4]: 3% | patients with grade 3-4 toxicities [5]: 60% | grade 3-4 febrile neutropenia (advanced breast cancer): 11% | grade 3-4 increased transaminase levels (advanced breast cancer): 11% | grade 3-4 leukopenia (advanced breast cancer): 21% | grade 3-4 neutropenia (advanced breast cancer): 47%
